How the values were obtained:
[1] = test system: stage II/III rectal cancer; conditions: neo-adjuvant or adjuvant 5-FU and radiation therapy; cited from earlier work
[2] = test system: stage II/III rectal cancer; assay: Phase III trial (INT-0144, S9304) of 5-FU and radiation: disease-free survival by intratumoral gene expression tertile; assay type: in vivo, human
Method: Methods: A total of 422 stage II/III rectal patients from a phase III trial (INT-0144, […]) of three regimens of 5-FU and radiation were available for gene expression assays. mRNA was extracted from laser-capturemicrodissected tumor tissue. cDNA was prepared by reverse transcription and quantitation of the candidate genes was performed using a fluorescence-based real-time detection method. The gene expression data were analyzed by splitting the expression data into three (tertiles) groups using 33rd and 66th percentile.

O=c1[nH]cc(F)c(=O)[nH]1 [5-FU, 5-fluorouracil]
overall 5-year survival rate [1]: approximately 50%
three year DFS ([2]; patients with high TP gene expression (tertile)): 79%
three year DFS ([2]; patients with high VEGF gene expression (tertile)): 65%
three year DFS ([2]; patients with low TP gene expression (tertile)): 65%
three year DFS ([2]; patients with low VEGF gene expression (tertile)): 77%
three year DFS ([2]; patients with median TP gene expression (tertile)): 67%
three year DFS ([2]; patients with median VEGF gene expression (tertile)): 69%
